In assay [1] the test system is acoustic trauma induced hearing loss. Kind of assay: Auditory brainstem response (ABR) thresholds after acoustic trauma. The class given is in vivo, Wistar rats. The procedure:
All experiments were performed using 7 week old male Wistar rats (CERJ, Le Genest, France) in accordance with the French Ministry of Agriculture regulations and European Community Council Directive no. 86/609/EEC, OJL 358. The rats were fed a standard diet ad libitum and maintained on a 12 h light-dark cycle.
Auditory Brainstem Reponses (ABR) and Distortion Product Otoacoustic Emissions (DPOAE) were recording using a RZ6 Auditory Workstation (Tucker-Davis Technologies, Alachua, FL, USA) with animals deeply anesthetized using 90 mg/kg ketamine and 10 mg/kg xylazine and placed on a 35° C. recirculating heating pad inside a sound attenuating cubicle (Med Associates Inc., St. Albans, VT, USA) throughout the experiment.
For ABR recordings, three stainless steel needle electrodes were placed subdermally over the vertex, the right mastoid and right hind leg of each animal. Tone-pips (5 msec duration presented at a rate of 21/s) at 8, 16 and 24 kHz were delivered to the right ear using a calibrated MF-1 speaker in closed-field configuration (Tucker-Davis Technologies, Alachua, FL, USA) at attenuating intensity until no reproducible response could be recorded. Close to the ABR threshold, the responses to 1000 acoustic stimuli in 5 dB steps were averaged. Responses were low-pass filtered at 3 kHz.
(§1) Animals were exposed to 121 dB octave band noise (8-16 kHz) for 2 h in groups of 4 rats, placed in individual compartments of a custom built circular cage placed on a 30 cm diameter platform rotating at 3 turns/minute (Aqila Innovation, Valbonne, France). The calibrated octave band noise generated by the RZ6 SigGen software was further amplified by a Crown D-75 amplifier in bridge mode (Crown Audio, Elkhart, IN, USA) and delivered by four Beyma CP16 compression tweeters (Acustica Beyma S. L., Moncada, Valencia, Spain) positioned 39 cm above the rotating platform, each 10 cm from the platform center.
(§2) Animals were treated by intraperitoneal injection daily for 14 days beginning immediately after acoustic trauma induction and subsequently repeated every 24 hours. The setron compounds granisetron HCl, ondansetron HCl, tropisetron HCl and azasetron HCl (Tocris Bioscience, Bristol, UK) were delivered dissolved in saline solution (1.6 mL/kg) while Tacrolimus (Selleck Chemicals, Houston, TX, USA) was dissolved in solution composed of 10% ethanol-100%/10% Kolliphor EL/1% Tween 80/79% saline (1.0 mL/kg). Placebo treated animals received injections of 1.6 mL/kg saline following the same treatment schedule.
(§3) Statistical analysis was performed using two-way ANOVA (Audiometry data: frequency and treatment group. Cochleograms: normalized distance from apex and treatment group) followed by Holm-Sidak post-hoc test for multiple comparisons. Results are given as mean±SEM and a p value less than or equal to 0.05 considered significant.
Baseline line audiometry (ABR and DPOAE measures) was performed for each animal 3 days before acoustic trauma was induced. Subsequently, audiometry measures were repeated 24 h and 14 days after acoustic trauma.
To quantify and compare the difference in treatment effects between groups while taking into account individual baseline and trauma variability, the hearing loss (ABR threshold shift & DPOAE amplitude loss) at D14 relative to baseline, as well as the functional recovery of hearing from 24 h to D14 (ABR threshold shift & DPOAE amplitude loss) were determined for all treatment groups.

In assay [2] the test system is outer hair cells. Kind of assay: Outer hair cell loss (cytocochleograms) in cochleae fixed at D14 after acoustic trauma. The format is in vivo, Wistar rats. The procedure: as §1, §2
After audiometry on day 14, animals were deeply anaesthetized with an intraperitoneal injection of pentobarbital (100 mg/kg). The cochleae were removed, fixed with 4% paraformaldehyde, pH 7.4, decalcified with 10% EDTA, pH 7.4 and then stained with myosin VIIa 1/1000. […] The mean loss of OHCs per group was subsequently calculated as a function of normalized distance from the apex in bins of 2.5% of the total length, using the total length of each histological specimen. Cell counts could reliably be obtained for up to 90% of the total distance from the apex (corresponding to the tonotopic region up to from 0 kHz to ~50 kHz in rat, Viberg & Canlon 2004), while the last 10% was too variable due to damage incurred during dissection.
as §3
To further support the conclusions from the functional audiometry data, the loss of outer hair cells in four treatment group was determined by constructing cytocochleograms from histological preparations of cochleae fixed after audiometry on day 14.

Where [3] appears, read: i.p. daily for 14 days after acoustic trauma, same doses as E4.

Experimental findings from US12702671B2, “Calcineurin inhibitors of the setron family for the treatment of hearing loss” (SENSORION, priority 2015, dated 2026) are described below.

SMILES strings stand for the structures. Counter-ions that a name gives are not always drawn.

In the case of `CN1C(=O)COc2c(C(=O)NC3CN4CCC3CC4)cc(Cl)cc21` (stereo not shown) [azasetron HCl, N-(1-azabicyclo[2.2.2]octan-8-yl)-6-chloro-4-methyl-3-oxo-1,4-benzoxazine-8-carboxamide], in assay [1] (day 14, i.p. daily for 14 days after acoustic trauma), the “reduction of ABR threshold shifts compared to placebo treatment” value is 35-60%. For the same molecule, in assay [1] (setting [3]), the “ABR threshold recovery from 24 h to day 14 compared to placebo” value was “better ABR threshold recovery”; the “hearing outcomes (ABR thresholds and DPOAE amplitudes) at 14 days after acoustic trauma compared to placebo” value is “better hearing outcomes across all frequencies”. In addition, the “ABR threshold shift from baseline to day 14 compared to placebo” value in assay [1] (i.p. daily for 14 days from immediately after 121 dB trauma, azasetron HCl 4.22, ondansetron HCl 4, tropisetron HCl 3.5, granisetron HCl 3.8, Tacrolimus 1.5 mg/kg) is on record as “significantly lower ABR threshold shifts”. For the same molecule, in assay [1] (placebo group only "slight improvement"), the “ABR threshold improvement graded by typical clinical audiological criteria (Furuhashi et al. 2002)” value is reported as “marked improvement to complete recovery”. In addition, in assay [2] (cochleae fixed after audiometry on day 14), the “mean loss of outer hair cells compared to placebo” value was “significantly lower mean loss”. The “reduction of mean outer hair cell loss compared to placebo treatment” value in assay [2] (cochleae fixed at day 14) was 50-75%.
